Measured values published in patent publication US20260103455A1, “ULK3 INHIBITORS AND USES THEREOF” (H. LEE MOFFITT CANCER CENTER AND RESEARCH INSTITUTE, INC., priority 2022, published 2026).
“And” between values parts separate entries of the source, which are not always exact repeats. Identical values can stand only once.

Assays:
JAK2 [1] = biological target: T1, JAK2 (Homo sapiens, UniProt O60674); assay: IC50 for JAK2, Reaction Biology kinase assay (32P Hotspot assay); format: biochemical
ULK3 [2] = biological target: T2, ULK3 (Homo sapiens, UniProt Q6PHR2); assay: DSF (ULK3) thermal shift; format: binding
T2 sequence (Q6PHR2 1-472): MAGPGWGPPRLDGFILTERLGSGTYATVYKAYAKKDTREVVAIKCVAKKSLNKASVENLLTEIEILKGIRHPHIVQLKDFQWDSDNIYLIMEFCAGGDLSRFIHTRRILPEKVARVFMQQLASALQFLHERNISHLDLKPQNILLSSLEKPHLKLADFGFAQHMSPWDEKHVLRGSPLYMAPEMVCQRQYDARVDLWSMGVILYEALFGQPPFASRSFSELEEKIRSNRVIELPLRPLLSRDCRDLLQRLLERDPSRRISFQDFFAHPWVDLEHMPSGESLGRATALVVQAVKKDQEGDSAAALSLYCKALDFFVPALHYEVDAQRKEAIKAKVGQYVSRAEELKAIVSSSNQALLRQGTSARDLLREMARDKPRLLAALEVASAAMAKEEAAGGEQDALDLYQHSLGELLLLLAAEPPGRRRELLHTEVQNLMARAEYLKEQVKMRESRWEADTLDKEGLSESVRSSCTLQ

JAK2 [3] = biological target: T1, JAK2; assay: DSF (JAK2) thermal shift; format: binding
ULK3 [4] = biological target: T2, ULK3; assay: IC50 for ULK3, Reaction Biology kinase assay (32P Hotspot assay); format: biochemical
U266 = assay: GI50 (MM cell) U266; format: cell-based; settings: Homo sapiens, U-266
8226 = assay: GI50 (MM cell) 8226; format: cell-based
OPM2 = assay: GI50 (MM cell) OPM2; format: cell-based; settings: Homo sapiens, OPM-2
U266 PSR = assay: GI50 (MM cell) U266 PSR; format: cell-based; settings: Homo sapiens, U-266
8226 B25 = assay: GI50 (MM cell) 8226 B25; format: cell-based

T1 sequence (O60674 whole entry): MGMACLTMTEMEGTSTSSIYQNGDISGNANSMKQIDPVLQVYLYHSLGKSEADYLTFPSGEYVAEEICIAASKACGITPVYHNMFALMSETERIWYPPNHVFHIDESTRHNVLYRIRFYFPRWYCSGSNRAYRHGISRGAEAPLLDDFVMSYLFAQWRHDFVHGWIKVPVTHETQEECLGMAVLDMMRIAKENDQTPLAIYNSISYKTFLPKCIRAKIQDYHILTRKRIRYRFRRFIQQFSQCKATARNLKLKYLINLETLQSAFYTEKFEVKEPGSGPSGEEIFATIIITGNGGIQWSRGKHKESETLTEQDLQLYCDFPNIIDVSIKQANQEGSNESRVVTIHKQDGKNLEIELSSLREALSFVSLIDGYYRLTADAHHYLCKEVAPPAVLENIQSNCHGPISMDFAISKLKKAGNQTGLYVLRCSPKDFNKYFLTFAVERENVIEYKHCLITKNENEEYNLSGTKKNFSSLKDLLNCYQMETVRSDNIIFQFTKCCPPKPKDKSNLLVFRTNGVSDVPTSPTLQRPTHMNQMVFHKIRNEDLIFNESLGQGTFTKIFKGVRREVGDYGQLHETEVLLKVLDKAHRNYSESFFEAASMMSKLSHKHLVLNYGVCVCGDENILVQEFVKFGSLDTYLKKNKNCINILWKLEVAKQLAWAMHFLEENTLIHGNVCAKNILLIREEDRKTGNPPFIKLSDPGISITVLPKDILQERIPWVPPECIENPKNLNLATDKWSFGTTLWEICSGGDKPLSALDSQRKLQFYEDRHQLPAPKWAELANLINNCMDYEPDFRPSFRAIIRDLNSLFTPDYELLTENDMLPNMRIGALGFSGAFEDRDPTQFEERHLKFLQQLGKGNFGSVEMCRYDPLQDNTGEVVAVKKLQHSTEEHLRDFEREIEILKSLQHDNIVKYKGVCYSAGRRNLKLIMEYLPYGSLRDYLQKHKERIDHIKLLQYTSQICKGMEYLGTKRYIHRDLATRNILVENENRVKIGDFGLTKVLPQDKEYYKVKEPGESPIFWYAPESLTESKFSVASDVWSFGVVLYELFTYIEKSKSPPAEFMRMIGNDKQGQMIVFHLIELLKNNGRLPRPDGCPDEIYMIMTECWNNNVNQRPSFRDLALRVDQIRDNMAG

## C[C@H](NC(=O)c1ccc(-c2ccnc(Nc3ccc(N4CCOCC4)cc3)n2)cc1)C(F)(F)F [BH1-152, (S)-4-(2-((4-Morpholinophenyl)amino)pyrimidin-4-yl)-N-(1,1,1-trifluoropropan-2-yl)benzamide]
JAK2 [1]
  IC50: 0.746 nM
ULK3 [2]
  DSF (ULK3) ΔTm (° C.): 12.5 °C
JAK2 [3]
  DSF (JAK2) ΔTm (° C.): 0.7 °C

## O=C(NC(CO)Cc1ccccc1)c1ccc(-c2ccnc(Nc3ccc(N4CCOCC4)cc3)n2)cc1 (stereo not shown) [BR1-008]
ULK3 [4]
  IC50: 2280 nM
JAK2 [3]
  DSF (JAK2) ΔTm (° C.): 0.5 °C

## CN1CCC(c2cnc(Nc3nc(-c4ccc(C(=O)NCC(F)(F)F)cc4)c4cc[nH]c4n3)cc2F)CC1 [RF1-060, 4-(2-((4-Fluoro-5-(1-methylpiperidin-4-yl)pyridin-2-yl)amino)-7H-pyrrolo[2,3-d]pyrimidin-4-yl)-N-(2,2,2-trifluoroethyl)benzamide]
ULK3 [2]
  DSF (ULK3) ΔTm (° C.): 6.8 °C
U266
  GI50: 4600 nM
8226
  GI50: 12000 nM
OPM2
  GI50: 909 nM
U266 PSR
  GI50: 870 nM
8226 B25
  GI50: 2930 nM

## O=C(NCC(F)(F)F)c1ccc(-c2nc(Nc3ccc(N4CCOCC4)cc3)nc3[nH]ccc23)cc1 [RF1-046, 4-(2-((4-Morpholinophenyl)amino)-7H-pyrrolo[2,3-d]pyrimidin-4-yl)-N-(2,2,2-trifluoro-ethyl)benzamide]
JAK2 [1]
  IC50: 0.745 nM

## CN1CCN(Cc2ccc(Nc3nc(-c4ccc(C(=O)NCC#N)cc4)c4cc[nH]c4n3)cc2)CC1 [RF1-024, N-(Cyanomethyl)-4-(2-((4-((4-methylpiperazin-1-yl)methyl)phenyl)amino)-7H-pyrrolo[2,3-d]pyrimidin-4-yl)benzamide]
JAK2 [1]
  IC50: < 0.508 nM
U266
  GI50: 917 nM
8226
  GI50: 3630 nM
OPM2
  GI50: 159 nM
U266 PSR
  GI50: 2580 nM
8226 B25
  GI50: 9490 nM

## N#CCNC(=O)c1ccc(-c2ccnc(Nc3ccc(N4CCOCC4=O)cc3)n2)cc1 [BH1-090, N-(Cyanomethyl)-4-(2-((4-(3-oxomorpholino)phenyl)amino)pyrimidin-4-yl)benzamide]
ULK3 [2]
  DSF (ULK3) ΔTm (° C.): 7.5 °C
JAK2 [3]
  DSF (JAK2) ΔTm (° C.): 1.3 °C

## CC(C)(C)[C@@H](CO)NC(=O)c1ccc(-c2ccnc(Nc3ccc(N4CCOCC4)cc3)n2)cc1 [BH1-062, (S)—N-(1-Hydroxy-3,3-dimethylbutan-2-yl)-4-(2-((4-morpholinophenyl)amino)pyrimidin-4-yl)benzamide]
JAK2 [1]
  IC50: 12.9 nM
JAK2 [3]
  DSF (JAK2) ΔTm (° C.): 1.0 °C

## CC(C)[C@H](CO)NC(=O)c1ccc(-c2ccnc(Nc3ccc(N4CCOCC4)cc3)n2)cc1 [BH1-063, (R)—N-(1-Hydroxy-3-methylbutan-2-yl)-4-(2-((4-morpholinophenyl)amino)pyrimidin-4-yl)benzamide]
ULK3 [2]
  DSF (ULK3) ΔTm (° C.): 7.9 °C
JAK2 [3]
  DSF (JAK2) ΔTm (° C.): 3.6 °C

## O=C(c1ccc(-c2ccnc(Nc3ccc(N4CCOCC4)cc3)n2)cc1)N1CCC[C@@H]1C(F)(F)F [BH1-160, (R)-(4-(2-((4-Morpholinophenyl)amino)pyrimidin-4-yl)phenyl) (2-(trifluoromethyl)pyrrolidin-1-yl) methanone]
JAK2 [1]
  IC50: 8.56 nM
JAK2 [3]
  DSF (JAK2) ΔTm (° C.): 1.4 °C

## COc1cc(N2CCOCC2)ccc1Nc1nccc(-c2ccc(C(=O)NCC(F)(F)F)cc2)n1 [BH1-132, 4-(2-((2-Methoxy-4-morpholinophenyl)amino)pyrimidin-4-yl)-N-(2,2,2-trifluoroethyl)benzamide]
ULK3 [2]
  DSF (ULK3) ΔTm (° C.): 10.0 °C
JAK2 [3]
  DSF (JAK2) ΔTm (° C.): 0.1 °C

## O=C(c1ccc(-c2ccnc(Nc3ccc(N4CCOCC4)cc3)n2)cc1)N1CCC[C@H]1C(F)(F)F [BH1-159, (S)-(4-(2-((4-Morpholinophenyl)amino)pyrimidin-4-yl)phenyl) (2-(trifluoromethyl)pyrrolidin-1-yl) methanone]
JAK2 [1]
  IC50: 74.2 nM
JAK2 [3]
  DSF (JAK2) ΔTm (° C.): 1.1 °C

## N#CCNC(=O)c1ccc(-c2nc(Nc3ccc(N4CCOCC4)cc3)nc3[nH]ccc23)cc1 [BL4-139]
JAK2 [1]
  IC50: < 0.51 nM
ULK3 [2]
  DSF (ULK3) ΔTm (° C.): 15.0 °C

## Cc1cnc(Nc2ccc(N3CCOCC3)cc2)nc1Nc1ccc(Cl)c(NS(=O)(=O)C(C)(C)C)c1 [BH1-150]
JAK2 [1]
  IC50: 1.25 nM
ULK3 [2]
  DSF (ULK3) ΔTm (° C.): 15.0 °C
JAK2 [3]
  DSF (JAK2) ΔTm (° C.): 2.1 °C

## CC(NC(=O)c1ccc(-c2ccnc(Nc3ccc(N4CCOCC4)cc3)n2)cc1)C(F)(F)F (racemic) [SR8-170, (RS)-4-(2-((4-Morpholinophenyl)amino)pyrimidin-4-yl)-N-(1,1,1-trifluoropropan-2-yl)benzamide]
ULK3 [4]
  IC50: 8.71 nM
JAK2 [1]
  IC50: 1.31 nM
ULK3 [2]
  DSF (ULK3) ΔTm (° C.): 14.3 °C and 14.4 °C
U266
  GI50: 210 nM
8226
  GI50: 290 nM
OPM2
  GI50: 6700 nM
U266 PSR
  GI50: 1580 nM
8226 B25
  GI50: 404 nM

## C[C@@H](NC(=O)c1ccc(-c2ccnc(Nc3ccc(N4CCOCC4)cc3)n2)cc1)C(F)(F)F [BH1-151, (R)-4-(2-((4-Morpholinophenyl)amino)pyrimidin-4-yl)-N-(1,1,1-trifluoropropan-2-yl)benzamide]
JAK2 [1]
  IC50: 1.13 nM
ULK3 [2]
  DSF (ULK3) ΔTm (° C.): 14.0 °C
JAK2 [3]
  DSF (JAK2) ΔTm (° C.): 0.4 °C

## O=C(NCC(F)(F)F)c1ccc(-c2ccnc(Nc3ccc(N4CCOCC4)cc3)n2)cc1 [SR8-169, 4-(2-((4-Morpholinophenyl)amino)pyrimidin-4-yl)-N-(2,2,2-trifluoroethyl)benzamide]
ULK3 [4]
  IC50: 10.3 nM
JAK2 [1]
  IC50: < 0.508 nM
ULK3 [2]
  DSF (ULK3) ΔTm (° C.): 15.0 °C and 11.7 °C and 14.7 °C
U266
  GI50: 86.2 nM
8226
  GI50: 83.5 nM
OPM2
  GI50: 15.1 nM
U266 PSR
  GI50: 4410 nM
8226 B25
  GI50: 214 nM

## Cc1cnc(Nc2ccc(CN3CCN(C)CC3)cc2)nc1-c1ccc(C(=O)NCC#N)cc1 [BH1-102]
ULK3 [2]
  DSF (ULK3) ΔTm (° C.): 7.2 °C
JAK2 [3]
  DSF (JAK2) ΔTm (° C.): 4.68 °C

## Cc1cnc(Nc2ccc(N3CCOCC3=O)cc2)nc1-c1ccc(C(=O)NCC#N)cc1 [GM1-030, N-(Cyanomethyl)-4-(5-methyl-2-((4-(3-oxomorpholino)phenyl)amino)pyrimidin-4-yl)benzamide]
ULK3 [2]
  DSF (ULK3) ΔTm (° C.): 8.1 °C
JAK2 [3]
  DSF (JAK2) ΔTm (° C.): 5.5 °C
